# Reference: the supplement of paper PMC13207355
# Columns and labels:
# Conditions in all cases: exposure time: 72 h
# E34 [1] = patient-derived glioblastoma stem cells of proneural subtype; experiment: phenotypic distance (Euclidean, principal components) from DMSO controls (arbitrary units); higher = stronger morphological change
# E31 [2] = patient-derived glioblastoma stem cells of proneural subtype; experiment: as above
# FT3469 [3] = normal neural stem cell line; experiment: as above
# E28 [4] = patient-derived glioblastoma stem cells of classical subtype; experiment: as above
# E13 [5] = patient-derived glioblastoma stem cells of classical subtype; experiment: as above
# E57 [6] = patient-derived glioblastoma stem cells of mesenchymal subtype; experiment: as above
# E21 [7] = patient-derived glioblastoma stem cells of mesenchymal subtype; experiment: as above
# E34 [8] = experiment: surviving fraction (nuclei count normalised to DMSO); higher = more cells surviving (less toxic)
# E31 [9] = experiment: as above
# FT3469 [10] = experiment: as above
# E28 [11] = experiment: as above
# E13 [12] = experiment: as above
# E57 [13] = experiment: as above
# E21 [14] = experiment: as above
# 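Throughout, for phenotypic distance (Euclidean, principal components) from DMSO controls: cell Painting imaging in 384-well plates, CellProfiler features reduced to at least 20 principal components, Euclidean distance versus same-plate DMSO vehicle wells (0.1% v/v), median over six images per well.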
# 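Throughout, for surviving fraction (nuclei count normalised to DMSO): nuclei counted by high-content imaging of Hoechst-stained cells in laminin-coated 384-well plates, relative to 0.1% DMSO vehicle wells, with staurosporine as cell-death control.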
compound,measurement,setting,value
O=C1CCc2cc(OCCCCc3nnnn3C3CCCCC3)ccc2N1 [Cilostazol],phenotypic distance,E34 [1]; 4.1 nM,0.293
same,phenotypic distance,E34 [1]; 12.3 nM,0.701
same,phenotypic distance,E34 [1]; 37 nM,0.573
same,phenotypic distance,E34 [1]; 111.1 nM,1.28
same,phenotypic distance,E34 [1]; 333.3 nM,0.55
same,phenotypic distance,E34 [1]; 1000 nM,0.46
same,phenotypic distance,E34 [1]; 3000 nM,0.733
same,phenotypic distance,E31 [2]; 4.1 nM,0.904
same,phenotypic distance,E31 [2]; 12.3 nM,0.814
same,phenotypic distance,E31 [2]; 37 nM,0.863
same,phenotypic distance,E31 [2]; 111.1 nM,0.598
same,phenotypic distance,E31 [2]; 333.3 nM,0.893
same,phenotypic distance,E31 [2]; 1000 nM,0.881
same,phenotypic distance,E31 [2]; 3000 nM,0.868
same,phenotypic distance,FT3469 [3]; 4.1 nM,0.483
same,phenotypic distance,FT3469 [3]; 12.3 nM,0.448
same,phenotypic distance,FT3469 [3]; 37 nM,0.352
same,phenotypic distance,FT3469 [3]; 111.1 nM,0.643
same,phenotypic distance,FT3469 [3]; 333.3 nM,3.23
same,phenotypic distance,FT3469 [3]; 1000 nM,0.826
same,phenotypic distance,FT3469 [3]; 3000 nM,0.541
same,phenotypic distance,E28 [4]; 4.1 nM,0.648
same,phenotypic distance,E28 [4]; 12.3 nM,0.777
same,phenotypic distance,E28 [4]; 37 nM,0.65
same,phenotypic distance,E28 [4]; 111.1 nM,1.01
same,phenotypic distance,E28 [4]; 333.3 nM,1.82
same,phenotypic distance,E28 [4]; 1000 nM,0.846
same,phenotypic distance,E28 [4]; 3000 nM,0.458
same,phenotypic distance,E13 [5]; 4.1 nM,0.5
same,phenotypic distance,E13 [5]; 12.3 nM,0.664
same,phenotypic distance,E13 [5]; 37 nM,1.06
same,phenotypic distance,E13 [5]; 111.1 nM,0.612
same,phenotypic distance,E13 [5]; 333.3 nM,0.287
same,phenotypic distance,E13 [5]; 1000 nM,0.5
same,phenotypic distance,E13 [5]; 3000 nM,0.553
same,phenotypic distance,E57 [6]; 4.1 nM,0.508
same,phenotypic distance,E57 [6]; 12.3 nM,0.665
same,phenotypic distance,E57 [6]; 37 nM,0.802
same,phenotypic distance,E57 [6]; 111.1 nM,0.893
same,phenotypic distance,E57 [6]; 333.3 nM,1.16
same,phenotypic distance,E57 [6]; 1000 nM,1.49
same,phenotypic distance,E57 [6]; 3000 nM,1.42
same,phenotypic distance,E21 [7]; 4.1 nM,0.676
same,phenotypic distance,E21 [7]; 12.3 nM,1.17
same,phenotypic distance,E21 [7]; 37 nM,1.02
same,phenotypic distance,E21 [7]; 111.1 nM,1.46
same,phenotypic distance,E21 [7]; 333.3 nM,0.998
same,phenotypic distance,E21 [7]; 1000 nM,1.13
same,phenotypic distance,E21 [7]; 3000 nM,1.15
same,surviving fraction,E34 [8]; 4.1 nM,0.904
same,surviving fraction,E34 [8]; 12.3 nM,1.1
same,surviving fraction,E34 [8]; 37 nM,0.938
same,surviving fraction,E34 [8]; 111.1 nM,0.937
same,surviving fraction,E34 [8]; 333.3 nM,1.05
same,surviving fraction,E34 [8]; 1000 nM,1.04
same,surviving fraction,E34 [8]; 3000 nM,0.959
same,surviving fraction,E31 [9]; 4.1 nM,0.919
same,surviving fraction,E31 [9]; 12.3 nM,1.04
same,surviving fraction,E31 [9]; 37 nM,0.905
same,surviving fraction,E31 [9]; 111.1 nM,0.98
same,surviving fraction,E31 [9]; 333.3 nM,0.963
same,surviving fraction,E31 [9]; 1000 nM,0.832
same,surviving fraction,E31 [9]; 3000 nM,0.832
same,surviving fraction,FT3469 [10]; 4.1 nM,1.03
same,surviving fraction,FT3469 [10]; 12.3 nM,1.03
same,surviving fraction,FT3469 [10]; 37 nM,0.96
same,surviving fraction,FT3469 [10]; 111.1 nM,1.02
same,surviving fraction,FT3469 [10]; 333.3 nM,0.949
same,surviving fraction,FT3469 [10]; 1000 nM,1.16
same,surviving fraction,FT3469 [10]; 3000 nM,0.891
same,surviving fraction,E28 [11]; 4.1 nM,0.916
same,surviving fraction,E28 [11]; 12.3 nM,1.13
same,surviving fraction,E28 [11]; 37 nM,0.892
same,surviving fraction,E28 [11]; 111.1 nM,1.2
same,surviving fraction,E28 [11]; 333.3 nM,1.01
same,surviving fraction,E28 [11]; 1000 nM,1.12
same,surviving fraction,E28 [11]; 3000 nM,0.914
same,surviving fraction,E13 [12]; 4.1 nM,0.989
same,surviving fraction,E13 [12]; 12.3 nM,1.04
same,surviving fraction,E13 [12]; 37 nM,1.01
same,surviving fraction,E13 [12]; 111.1 nM,0.931
same,surviving fraction,E13 [12]; 333.3 nM,0.933
same,surviving fraction,E13 [12]; 1000 nM,0.98
same,surviving fraction,E13 [12]; 3000 nM,0.897
same,surviving fraction,E57 [13]; 4.1 nM,0.991
same,surviving fraction,E57 [13]; 12.3 nM,0.969
same,surviving fraction,E57 [13]; 37 nM,0.975
same,surviving fraction,E57 [13]; 111.1 nM,1.04
same,surviving fraction,E57 [13]; 333.3 nM,0.91
same,surviving fraction,E57 [13]; 1000 nM,0.839
same,surviving fraction,E57 [13]; 3000 nM,0.817
same,surviving fraction,E21 [14]; 4.1 nM,0.933
same,surviving fraction,E21 [14]; 12.3 nM,1.09
same,surviving fraction,E21 [14]; 37 nM,1.03
same,surviving fraction,E21 [14]; 111.1 nM,1.04
same,surviving fraction,E21 [14]; 333.3 nM,0.973
same,surviving fraction,E21 [14]; 1000 nM,0.949
same,surviving fraction,E21 [14]; 3000 nM,0.934
